Measurements taken from US20230405002A1, “COMBINATIONS OF DIACYLGLYCEROL ACYLTRANSFERASE 2 INHIBITORS AND ACETYL-COA CARBOXYLASE INHIBITOR” (Pfizer Inc., priority 2020, published 2023).
pIC50: −log10 of the molar value. ≈ marks a conversion by molar mass, not a printed value.

Legend:
[1] = target: DGAT2 in human hepatocytes (Homo sapiens (Human), UniProt Q96PD7); test: Determination of IC50 values for DGAT2 inhibitors in human hepatocytes; assay type: cell-based; conditions: geometric mean; cryopreserved human hepatocytes, DGAT1 inhibitor 3 μM present
Experimental: For evaluation of the effects of DGAT2 inhibitors in a cell-based setting, cryopreserved human hepatocytes (Lot DOO, Celsis, Baltimore, MD) were thawed and plated onto type I collagen-coated plates according to the manufacturer's instructions. After 18 hours overnight recovery period, the cells were overlayed with media containing 250 μg/mL Geltrex Basement Membrane Matrix (Thermo Fisher). The following day, media was aspirated and replaced with serum-free Williams Media E (Thermo Fisher) containing 400 μM sodium dodecanoate (Sigma-Aldrich, St. Louis, MO) and 2 mM GlutaMAX (Thermo Fisher). […] DGAT2 inhibitors were then added to the desired final concentration. After a 15 minute preincubation, 0.2 μCi [^14C(U)]-glycerol (Perkin Elmer) was added to each well followed by a 3 hour incubation. At this point the media was removed, and the cells lysed via orbital shaking in isopropyl alcohol: tetrahydrofuran (9:1) for 15 minutes prior to centrifugation at 3000 rpm for 10 minutes. Radiolabeled lipids were resolved using a solvent system by thin layer chromatography with the solvent consisting of hexanes: diethyl ether: glacial acetic acid (75:23:2, v/v/v). After separation, radiolabeled lipids were visualized using the Typhoon 9500 phosphorimaging system (GE). The half maximal inhibitory concentrations (IC50 values) were determined by nonlinear regression analysis of the % inhibition dose response curve using GraphPad Prism (GraphPad Software, Inc., La Jolla, CA).
Table 12 below provides the IC50 values of selected Examples for inhibition of DGAT2 in human hepatocytes in accordance with the above-described assay. Results are reported as geometric mean IC50 values, with the number of replicates (n) shown.

[2] = Thermodynamic solubility in various media; assay type: physicochemical
Experimental: The solubility of active pharmaceutical ingredients is an important characteristic in determining biological performance and ease of formulation during drug development, with high solubility being preferred (Klein, S. 2010, The AAPS Journal, 12, 397-406; Di, L., et al 2012, Drug Disc. Today, 17. 486-495). A test sample of crystalline solid (˜7 mg) was combined in a vial with 1 mL of the relevant buffer solution and the mixture vortexed to combine. If the solid dissolved completely, additional solid was added with vortexing until a saturated solution was obtained. The saturated solution/solid mixture was capped and subjected to temperature cycling as follows: 1 min at 25° C.; 8 h at 40° C.; 5 h at 15° C. and 12 h at 25° C. The mixture was filtered in a centrifugal filtration device (0.22 μm PVDF filter, MilliporeSigma, Milwaukee, WI) at 13,000 rpm and the concentration of the test compound in the filtrate was determined by HPLC/UPLC with reference to a three point standard curve. Phosphate buffered saline (PBS, pH 6.8, 50 mM phosphate buffer, 250 mM NaCl). Simulated gastric fluid (SGN pH 1.2, USP recipe). […]

human DGAT2 (hDGAT2) = human DGAT2 (hDGAT2) (Homo sapiens (Human), UniProt Q96PD7); test: In vitro DGAT2 assay, determination of IC50 values; assay type: biochemical; conditions: geometric mean; hDGAT2 membrane fraction
[3] = test system: Western diet fed Sprague-Dawley rats; test: In vivo effects of DGAT2 inhibitors on plasma and hepatic triglyceride levels (rat western diet model); conditions: oral 3, 10, 30, 100 mg/kg BID 7 days; dose dependent; vs western diet vehicle
From the text: The rat western diet model was utilized to assess the effects of DGAT2 inhibitor treatment on plasma triglyceride production and hepatic triglyceride content in vivo. Male Sprague-Dawley rats were housed under standard laboratory conditions on a 12-hour light, 12-hour dark cycle (lights on at 06:00). Two weeks prior to study start animals were placed on a high-fat, high sucrose, high-cholesterol diet (D12079b, provided by Research Diets, New Brunswick, NJ). This diet provides ˜43% of kilocalories from carbohydrate and ˜41% of kilocalories from fat. Example 4 was administered orally as a solution (10 mL/kg dosing volume) in 0.5% methylcellulose in deionized water, pH 7.0-7.5 (methylcellulose was obtained from Sigma-Aldrich, St. Louis, MO). […] Plasma TG levels were determined using a Roche Hitachi Chemistry analyzer according to the manufacturer's instructions (Roche Diagnostics Corporation, Indianapolis, IN) and data was analyzed using GraphPad Prism (GraphPad Software, Inc., La Jolla, CA). […] The triglyceride assay was performed through absorbance and reported as milligrams per deciliter. […]
FIG. 29 plots the multiple dose effects of Example 4 on Plasma Triglyceride in Western Diet Fed Sprague-Dawley Rats where plasma triglyceride levels were determined from blood drawn from the lateral tail vein 2-hours following the final dose of Example 4. […]

DGAT2 in human hepatocytes, sequence (Q96PD7 whole entry): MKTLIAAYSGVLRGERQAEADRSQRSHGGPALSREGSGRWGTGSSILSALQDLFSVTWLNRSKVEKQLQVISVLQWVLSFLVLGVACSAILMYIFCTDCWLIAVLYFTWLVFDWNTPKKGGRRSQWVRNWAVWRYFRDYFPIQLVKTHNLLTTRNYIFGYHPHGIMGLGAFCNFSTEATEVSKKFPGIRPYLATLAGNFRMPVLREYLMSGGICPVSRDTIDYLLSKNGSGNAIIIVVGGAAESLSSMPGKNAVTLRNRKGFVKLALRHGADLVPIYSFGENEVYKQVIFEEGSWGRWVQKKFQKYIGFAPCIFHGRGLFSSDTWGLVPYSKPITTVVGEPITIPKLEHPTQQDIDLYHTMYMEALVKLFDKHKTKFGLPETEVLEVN
human DGAT2 (hDGAT2), sequence (Q96PD7 whole entry): as above

**Q.** Which results are given for `CCOc1cccnc1Oc1cncc(-c2ncc(C(=O)N[C@@H]3CNC[C@@H](F)C3)cn2)c1` [Example 4, 2-{5-[(3-Ethoxypyridin-2-yl)oxy]pyridin-3-yl}-N-[(3S,5S)-5-fluoropiperidin-3-yl]pyrimidine-5-carboxamide]?
**A.** pIC50 [1]: 7.96; solubility at 25 h ([2]; FaSSIF (as printed, 25 °C, thermodynamic from solid), FaSSIF pH 6.8 (second line so printed; method also names FeSSIF)): 1210 µg/mL (≈ 2760 µM); solubility at 25 h ([2]; fasted state simulated intestinal fluid (FaSSIF), 25 °C, thermodynamic from solid, FaSSIF pH 6.8 (first line)): 700 µg/mL (≈ 1600 µM); pIC50 (human DGAT2 (hDGAT2)): 8.00; reduction in liver triglycerides [3]: up to 48%; reduction in plasma triglycerides [3]: ≤ 70%
